Reference: ChEMBL document CHEMBL1201862, “PubChem BioAssay data set” (2004)
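Dose response: 5 concentrations. Exposure: 48 h. Format: 96-well plates. Endpoint: linear interpolation; highest concentration if not reached. GI50 is the concentration that inhibits growth by half.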 Activity calls are given as the source filed them. No stated cut-off is given here; in the data, active = GI50 up to about 1.1 µM and inactive = higher. Residues, ends and D or L forms follow the SMILES beside them. *: point of attachment. Pentanoyl = CCCCC(=O)*; Boc = CC(C)(C)OC(=O)*

Tests used:
Assay in all cases: inhibition of tumour cell growth, NCI panel, 48 h
LOX IMVI = test system: LOX IMVI
OVCAR-8 = test system: OVCAR-8
SNB-75 = test system: SNB-75
BT-549 = test system: BT-549
MOLT-4 = test system: MOLT-4
COLO 205 = test system: COLO 205
NCI-H23 = test system: NCI-H23
SNB-19 = test system: SNB-19
KM12 = test system: KM12
TK-10 = test system: TK-10
OVCAR-5 = test system: OVCAR-5
786-0 = test system: 786-0
UO-31 = test system: UO-31
ACHN = test system: ACHN
NCI-H522 = test system: NCI-H522
MCF7 = test system: MCF7
MDA-MB-435 = test system: MDA-MB-435
HCC 2998 = test system: HCC 2998
SK-MEL-5 = test system: SK-MEL-5
T47D = test system: T47D
SF-295 = test system: SF-295
SF-268 = test system: SF-268
PC-3 = test system: PC-3
CAKI-1 = test system: CAKI-1
SK-OV-3 = test system: SK-OV-3
MDA-MB-231 = test system: MDA-MB-231
Malme-3M = test system: Malme-3M
NCI-H226 = test system: NCI-H226
UACC-62 = test system: UACC-62
HCT-15 = test system: HCT-15
OVCAR-3 = test system: OVCAR-3
HT-29 = test system: HT-29
DU-145 = test system: DU-145
RXF 393 = test system: RXF 393
HCT-116 = test system: HCT-116
HOP-62 = test system: HOP-62
HL-60 = test system: HL-60
RPMI-8226 = test system: RPMI-8226
OVCAR-4 = test system: OVCAR-4
MDA-N = test system: MDA-N
CCRF-CEM = test system: CCRF-CEM
UACC-257 = test system: UACC-257
EKVX = test system: EKVX
SK-MEL-2 = test system: SK-MEL-2
SK-MEL-28 = test system: SK-MEL-28
SN12C = test system: SN12C
NCI/ADR-RES = test system: NCI/ADR-RES
Hs-578T = test system: Hs-578T
A549 = test system: A549
SR = test system: SR
IGROV-1 = test system: IGROV-1
U-251 = test system: U-251
M14 = test system: M14
K562 = test system: K562
SW-620 = test system: SW-620
HOP-92 = test system: HOP-92
SF-539 = test system: SF-539
NCI-H460 = test system: NCI-H460
A498 = test system: A498

Measured: GI50

c1ccc(-c2cc(-c3ccncc3)cc(-c3ccncc3)n2)cc1
> 100 µM: HCT-15
active: MCF7 0.618 µM
inactive: LOX IMVI > 100 µM | OVCAR-8 > 100 µM | SNB-75 29 µM | BT-549 > 100 µM | MOLT-4 > 100 µM | COLO 205 > 100 µM | NCI-H23 > 100 µM | SNB-19 45.2 µM | KM12 > 100 µM | TK-10 > 100 µM | OVCAR-5 > 100 µM | 786-0 69.3 µM | UO-31 > 100 µM | ACHN > 100 µM | NCI-H522 18.2 µM | MDA-MB-435 > 100 µM | HCC 2998 > 100 µM | SK-MEL-5 > 100 µM | T47D > 100 µM | SF-295 62.2 µM | SF-268 45.6 µM | PC-3 > 100 µM | CAKI-1 > 100 µM | SK-OV-3 80.7 µM | MDA-MB-231 > 100 µM | Malme-3M > 100 µM | NCI-H226 > 100 µM | UACC-62 > 100 µM | OVCAR-3 > 100 µM | HT-29 > 100 µM | DU-145 > 100 µM | RXF 393 > 100 µM | HCT-116 > 100 µM | HOP-62 33.3 µM | HL-60 > 100 µM | RPMI-8226 > 100 µM | OVCAR-4 > 100 µM | MDA-N > 100 µM | CCRF-CEM > 100 µM | UACC-257 > 100 µM | EKVX > 100 µM | SK-MEL-2 > 100 µM | SK-MEL-28 > 100 µM | SN12C > 100 µM | NCI/ADR-RES > 100 µM | Hs-578T 38.5 µM | A549 > 100 µM | SR > 100 µM | IGROV-1 > 100 µM | U-251 51.3 µM | M14 > 100 µM | K562 > 100 µM | SW-620 > 100 µM

CC(=O)O[C@H]1C(=O)[C@@]2(C)[C@H]([C@H](OC(=O)C3CCCCC3)[C@]3(O)C[C@H](OC(=O)[C@H](O)[C@@H](NC(=O)OC(C)(C)C)c4ccccc4)C(C)=C1C3(C)C)[C@]1(OC(C)=O)CO[C@@H]1C[C@@H]2O
0.268 µM: HCT-15
inactive: OVCAR-4 10.2 µM | EKVX > 12.5 µM | NCI/ADR-RES > 3.03 µM
active: LOX IMVI 0.00817 µM | OVCAR-8 0.0144 µM | SNB-75 0.402 µM | HOP-92 0.0148 µM | BT-549 0.0134 µM | MOLT-4 0.00474 µM | COLO 205 0.013 µM | NCI-H23 0.0261 µM | SNB-19 0.0326 µM | KM12 0.00731 µM | TK-10 0.151 µM | SF-539 0.00298 µM | OVCAR-5 0.0074 µM | 786-0 0.0176 µM | UO-31 0.849 µM | ACHN 0.413 µM | NCI-H522 0.00918 µM | MCF7 0.00259 µM | MDA-MB-435 0.00226 µM | HCC 2998 0.0299 µM | SK-MEL-5 0.0107 µM | T47D 0.0678 µM | SF-295 0.027 µM | SF-268 0.202 µM | PC-3 0.0168 µM | SK-OV-3 0.0151 µM | MDA-MB-231 0.0427 µM | Malme-3M 0.177 µM | NCI-H226 0.0236 µM | UACC-62 0.0129 µM | OVCAR-3 0.00125 µM | HT-29 0.00335 µM | DU-145 0.0867 µM | RXF 393 0.0331 µM | HCT-116 0.00378 µM | HOP-62 0.0181 µM | HL-60 0.00125 µM | RPMI-8226 0.00457 µM | MDA-N 0.00169 µM | CCRF-CEM 0.00499 µM | UACC-257 0.0252 µM | SK-MEL-2 0.0803 µM | SN12C 0.0385 µM | Hs-578T 0.00548 µM | A549 0.0194 µM | NCI-H460 0.00762 µM | SR 0.00542 µM | IGROV-1 0.00348 µM | U-251 0.0137 µM | M14 0.00724 µM | K562 0.00275 µM | SW-620 0.00634 µM

CCCCC(=O)Oc1ccc(CC(NC(=O)OC(C)(C)C)C(=O)NC(C)C(=O)NC(Cc2ccccc2)C(=O)NCC(N)=O)cc1 (stereo unspecified) (Boc-Y(Pentanoyl)AFG-NH2; configuration not given here)
> 100 µM: HCT-15
inactive: LOX IMVI 16.1 µM | OVCAR-8 16.8 µM | SNB-75 45.5 µM | HOP-92 16.2 µM | BT-549 23.7 µM | MOLT-4 24.3 µM | COLO 205 19.6 µM | NCI-H23 41 µM | SNB-19 23.3 µM | KM12 23.7 µM | TK-10 > 100 µM | SF-539 33.3 µM | OVCAR-5 21.9 µM | 786-0 43.6 µM | UO-31 > 100 µM | ACHN > 100 µM | NCI-H522 18.8 µM | MCF7 20.5 µM | MDA-MB-435 20 µM | HCC 2998 20.6 µM | SK-MEL-5 70 µM | T47D 27.4 µM | SF-295 63.8 µM | SF-268 31.6 µM | PC-3 43.9 µM | CAKI-1 > 100 µM | SK-OV-3 32.6 µM | MDA-MB-231 20 µM | Malme-3M 31.6 µM | NCI-H226 > 100 µM | UACC-62 20.5 µM | OVCAR-3 20.4 µM | HT-29 19.4 µM | DU-145 > 100 µM | RXF 393 44.5 µM | HCT-116 21.4 µM | HOP-62 17.3 µM | HL-60 26.4 µM | RPMI-8226 21.2 µM | OVCAR-4 74.1 µM | MDA-N 25.9 µM | CCRF-CEM 40.6 µM | UACC-257 27.7 µM | SK-MEL-2 20.7 µM | SK-MEL-28 27.3 µM | SN12C 32.3 µM | NCI/ADR-RES > 100 µM | Hs-578T 34.6 µM | A549 > 100 µM | NCI-H460 31.7 µM | IGROV-1 19.7 µM | U-251 20.5 µM | M14 36.7 µM | K562 46.3 µM | A498 > 100 µM | SW-620 44.8 µM

CC(C)(C)OC(=O)c1ccc(NCC2=C(Br)C(=O)C=CC2=O)cc1
15.6 µM: HCT-15
inactive: LOX IMVI 14.7 µM | OVCAR-8 16.5 µM | SNB-75 39.5 µM | HOP-92 14.5 µM | BT-549 11.4 µM | MOLT-4 1.42 µM | COLO 205 18.2 µM | NCI-H23 19.6 µM | SNB-19 > 54.7 µM | KM12 33.3 µM | TK-10 22.1 µM | SF-539 21.5 µM | OVCAR-5 23.1 µM | 786-0 17.5 µM | UO-31 14 µM | ACHN 17.9 µM | NCI-H522 4.47 µM | MCF7 19.3 µM | MDA-MB-435 18.8 µM | HCC 2998 21.5 µM | SK-MEL-5 15.9 µM | T47D 17.5 µM | SF-295 65.9 µM | SF-268 19.6 µM | PC-3 27.4 µM | CAKI-1 11.6 µM | SK-OV-3 > 64.9 µM | MDA-MB-231 19.1 µM | Malme-3M 14.9 µM | NCI-H226 22.1 µM | UACC-62 16.6 µM | OVCAR-3 10.6 µM | HT-29 17.5 µM | DU-145 35.7 µM | RXF 393 13.7 µM | HCT-116 17.7 µM | HOP-62 37 µM | HL-60 1.79 µM | RPMI-8226 10.3 µM | OVCAR-4 14.1 µM | MDA-N 20 µM | CCRF-CEM 2.42 µM | UACC-257 21.7 µM | EKVX 19.7 µM | SK-MEL-2 28.6 µM | SK-MEL-28 19.6 µM | SN12C 18.7 µM | NCI/ADR-RES 20.1 µM | Hs-578T 19.1 µM | A549 57.8 µM | NCI-H460 36.3 µM | SR 11.7 µM | IGROV-1 24.2 µM | U-251 22.3 µM | M14 27.5 µM | K562 11.7 µM | SW-620 16.4 µM
